Results taken from patent US6982249B1, “Bradykinin analogs as selective inhibitors of cell activation” (The Regents of the University of Michigan, priority 1997, dated 2006).
“Also recorded” adds a separate entry of the source. Where two headings read alike, the source gives them in different places. Ends that are not written are not given here.

Assays:
[1] = system: γ-thrombin-induced platelet aggregation; assay: γ-thrombin-induced platelet aggregation in human platelet-rich plasma; type: cell-based
Method: For human platelet aggregation studies, 50 ml human blood was collected into a syringe containing 5 ml of 0.013 M sodium citrate. The anticoagulated blood was centrifuged at 180 xg for 10 minutes at room temperature and the platelet-rich plasma was the supernatant. Platelet aggregation studies in platelet-rich plasma were performed in the cuvette of an aggregometer using γ-thrombin (Haematologic Technologies, Essex Junction, Vt.). After standardization of the aggregometer, the threshold dose of γ-thrombin, defined as the minimal concentration that will induce full platelet aggregation, was ascertained for each preparation of platelet-rich plasma. Typically, the threshold dose of γ-thrombin was between 5 and 30 nM.
Various concentrations of the peptide being tested were added to the platelet-rich plasma in the cuvette of the aggregometer. Platelet aggregation was induced by the addition of γ-thrombin. The degree of platelet aggregation was determined by measuring (in arbitrary units) the increase in light transmission through the stirred suspension of platelet-rich plasma. […]
The peptides synthesized in Example 4 were assayed for the ability to inhibit γ-thrombin-induced platelet aggregation in platelet-rich plasma.

[2] = system: fibroblasts (thrombin receptor, PAR 1); assay: α-thrombin-induced calcium mobilization in fibroblasts; type: cell-based
Method: (§1) A variation of the calcium mobilization assay uses fibroblasts (which express a single receptor for thrombin, PAR 1), umbilical vein endothelial cells, or other cells which express the cloned thrombin receptor, and which grow in monolayers on the bottom of plastic wells.
(§2) Fibroblasts or endothelial cells were grown in 24-96 well plates and loaded with the fluorescent Ca^2+ indicator fura-2 acetyloxymethylester (5 μM, Molecular Probes Inc.) by incubation for 60 min. in HEPES-Tyrode's buffer at 37° C. After washing the cells, the fluorescence of the cells was monitored on a thermostatically controlled heated pad at 37° C. for 1 min, then the cells were incubated with α-thrombin (1 to 5 nM) in the absence or presence of a BK analog. Fluorescence was detected by a Perkin-Elmer LS-50B Luminescence Spectrofluorometer. Excitation was measured at 340 and 380 nm wavelength and emission was assessed at 510 nm. The cytosolic Ca^2+ levels were determined as described above. The Rmax value was determined using 10 mM Ca^2+ in the presence of 20 μM Ionophor A23187; Rmin was determined in the presence of 20 mM EDTA.
(§3) The ability of BK analogs to inhibit α-thrombin-induced calcium mobilization in fibroblasts and human umbilical vein endothelial cells (HUVEC) was assayed as described in Example 1C.

[3] = biological target: T1, NAT12 (SEQ ID NO:2), α-thrombin cleavage site on the thrombin receptor (Homo sapiens, UniProt P25116); assay: α-thrombin cleavage of NAT12 peptide (HPLC); type: biochemical; settings: 1 mM peptide, 8 nM α-thrombin
T1 construct: spans amino acids 35-46 of the α-thrombin cleavage site on the thrombin receptor
Method: The peptide NAT12 (SEQ ID NO:2), which spans amino acids 35-46 of the α-thrombin cleavage site on the thrombin receptor (Vu et al., Cell 64, 1057 (1991), was also used to determine whether BK analogs blocked α-thrombin cleavage of the cloned receptor.
The cleavage studies were performed according to the method of Molino et al., J. Biol. Chem. 270, 11168 (1995). Briefly, NAT12 (SEQ ID NO:2) was dissolved in a solution of 0.01 M NaH2PO4 and 0.15 M NaCl, pH 7.4. The mixture was then incubated with 8 nM α-thrombin for one hour at 37° C. either in the absence (control) or presence of 1 mM of a BK analog. Following incubation, the mixture was applied to a Vyadec C-18 HPLC column in 0.1% trifluoroacetic acid and eluted with a gradient from 0% to 100% of 80% MeCN and 0.1% trifluoroacetic acid. The sizes of the separated products were confirmed by mass spectrometry.
NAT12 (SEQ ID NO:2) produced a single peak (peak 1) when analyzed by HPLC. […] The additional peaks, peaks 3 and 2, represent the cleavage products of NAT12.

[4] = Observations of the animals after bolus injection (blood pressure, pulse, platelet count, bleeding); type: in vivo, New Zealand white rabbits; settings: rabbit, i.v. bolus
Method: (§4) Clearance studies were performed in New Zealand white rabbits weighing between 2.0 and 2.5 kg. Rabbits were premedicated according to the method of Michelson et al., J. Mol. Cell Cardiol. 20, 547 (1988) with 10 mg/kg 1 M xylazine and 10 mg/kg 1 M ketamine. After tracheostomy, intubation, and positive pressure ventilation done with room air (Harvard instruments), stage III surgical anesthesia was maintained with 20 mg/ml of intravenous pentobarbital. A carotid artery and a jugular vein were then exposed. A catheter was inserted into the exposed carotid artery for withdrawal of blood samples and monitoring the animal's blood pressure (Gould, Inc., Cardiovascular Products, Oxnard. Calif.). In a similar manner, a catheter was inserted into the exposed jugular vein for administering the anesthetic and BK analog.
(§5) A single intravenous infusion of BK analog was injected. The amount of BK analog injected was calculated from the weight of the animal such that the blood concentration was 1 mM peptide. For example: for a 2.5 kg rabbit, 7% of its weight gives an estimated blood volume of 175 ml. Accordingly, 89 mg of the control BK fragment SEQ ID NO:7 was injected (giving a 1 mM concentration in the 175 ml plasma). Depending upon the size of the animal, 75 to 90 mg peptide was injected. Blood samples were collected at 2, 4, 6, 8, 10, 20, 30, 40, 60, 90, and 120 minute intervals after infusion into a 0.013 M sodium citrate anticoagulant solution. Plasma was prepared from each of the blood samples collected over time by centrifugation of the blood samples at 10,000×g for two minutes. Aliquots of the plasmas were assayed for the presence of the BK analog antigen by the ELISA technique using a MARKIT-M [1-5] BK assay from Dainippon Pharmaceutical Co., Ltd., Osaka, Japan.

[5] = In vivo clearance after single intravenous infusion (plasma ELISA); parameters: species or system New Zealand white rabbits; settings: rabbit; for half-life: single i.v. infusion
Method: as §4, §5

[6] = biological target: T2, NAT12 (thrombin receptor cleavage site) (Homo sapiens, UniProt P25116); assay: Binding of biotinylated NAT12 to peptides linked to microtiter plates; settings: peptide linked to microtiter plate
T2 construct: spans amino acids 35-46 of the α-thrombin cleavage site on the thrombin receptor
Method: (§6) Peptides from a combinatorial library are linked to microtiter plates and the wells are blocked with 1% BSA. Biotinylated-NAT12 is incubated with the microtiter plates. After washing, the presence of biotin-NAT12 attached to the matrix support expressing peptides is detected by incubation with ImmunoPure streptavidin horseradish peroxidase conjugate (Pierce Chemical Co., Rockville Ill.) followed by peroxidase-specific fast reacting substrate, turbo-3,3′,5,5′-tetramethylbenzidine (turbo-TMB, Pierce Chemical Co., Rockville Ill.). After incubation for 5 min at room temperature, the color reaction of the turbo-TMB is stopped by the addition of 1 M phosphoric acid. The bound peptide is quantified by measuring the absorbance of the reaction mixture at 450 nm using a Microplate auto reader EL311 (BioTek Instrument, Winooski Vt.).
The specific binding of biotinylated NAT12 to BK analogs and other peptides was assayed as described in Example 2A.

LNA7 = biological target: T3, LNA7; assay: microtiter plate assay, plate-linked peptide, biotin-NAT12 detected with streptavidin-HRP
T3 construct: Control peptide
T3 peptide: LNAENNA
Method: as §6, with “turbo-3,3',5,5'-tetramethylbenzidine” for “turbo-3,3′,5,5′-tetramethylbenzidine”
(§7) Peptides from a combinatorial library are linked to a microtiter plate and blocked with 1% BSA. Biotinylated-NAT12 is incubated with the microtiter plate. After washing, the presence of biotin-NAT12 attached to the matrix support expressing peptides is detected by incubation with Immu-noPure streptavidin horseradish peroxidase conjugate (Pierce Chemical Co., Rockville Ill.) followed by peroxidase-specific fast reacting substrate, turbo-3,3',5,5'-tetramethylbenzidine (turbo-TMB, Pierce Chemical Co., Rockville Ill.). After incubation for 5 min at room temperature, the color reaction of the turbo-TMB is stopped by the addition of 1 M phosphoric acid. The bound peptide is quantified by measuring the absorbance of the reaction mixture at 450 nm using a Microplate auto reader EL311 (BioTek Instrument, Winooski Vt.). Compounds which bind the NAT12 peptide are also assayed for the ability to inhibit platelet aggregation and the ability to inhibit calcium mobilization, using the assays described in Example 1.

FSPFR = biological target: T4, FSPFR; assay: as above
T4 construct: Control peptide
T4 peptide: FSPFR
Method: as §6, with “turbo-3,3',5,5'-tetramethylbenzidine” for “turbo-3,3′,5,5′-tetramethylbenzidine”
as §7

RPPGC = biological target: T5, RPPGC (not fully specified); assay: as above
T5 peptide: RPPGC
Method: as §6, with “turbo-3,3',5,5'-tetramethylbenzidine” for “turbo-3,3′,5,5′-tetramethylbenzidine”
as §7

[7] = system: human umbilical vein endothelial cells (HUVEC); assay: α-thrombin-induced calcium mobilization in HUVEC; type: cell-based
Method: as §1, §2, §3

[8] = system: α-thrombin binding to platelets; assay: 125I-α-thrombin binding to platelets; settings: HK, LK, domain 3: molar excess

For Arg-Pro-Pro [RPP], the “γ-thrombin-induced platelet aggregation at 50 μM peptide (FIG. 2)” value ([1]; 50 μM peptide, 27.5 nM γ-thrombin) was “abolish”, the “fold better as an inhibitor than RPPGF” value ([1]; 100% inhibition of γ-thrombin-induced aggregation, same conditions) was “greater than 2.5 fold” and the “inhibition of γ-thrombin-induced platelet aggregation (in words)” value ([1]; human PRP, assay like Example 1A) was “showed inhibition”. For the same molecule, the “concentration that inhibited γ-thrombin-induced platelet aggregation 100%” value ([1]; mean±SD of 3 or 5 experiments, human PRP) was 0.089 mM and the “inhibition of α-thrombin-induced calcium mobilization in fibroblasts (FIG. 5)” value [2] was “inhibited calcium mobilization; also recorded: inhibition”.

With RPPGF [RPPGF, Arg-Pro-Pro-Gly-Phe] the “reduction of NAT12 peak 1 area after α-thrombin treatment” value ([3]; 1 h 37° C., without peptide 81%) was 57%, the “NAT12 cleavage product peak 2, share of original peak area” value ([3]; without peptide 37%) was 26% and the “NAT12 cleavage product peak 3, share of original peak area” value ([3]; without peptide 44%) was 31%. The “bleeding at the surgical sites of cutdowns and intubations” value [4] was “no abnormal bleeding”, the “blood pressure, pulse, and platelet count” value [4] was “remained stable” and the “unfavorable effects following the bolus injection” value [4] was “No unfavorable effects were observed”. It also gave a Cmax ([5]; New Zealand white, plasma, iv, single i.v. infusion 75 to 90 mg, ELISA, two of three rabbits, read-out: peak plasma concentration after infusion) of 60 µg/mL, a half-life ([5]; New Zealand white, plasma, iv, read-out: half-life of antigen clearance in plasma, first phase) of 2.8 min and a half-life ([5]; New Zealand white, plasma, iv, read-out: half-life of antigen clearance in plasma, second phase) of 20 min. For the same molecule, the “peak plasma concentration after infusion” value ([5]; single i.v. infusion 75 to 90 mg, ELISA, two of three rabbits) was 0.120 mM.

In the case of “RPPGC: peptide RPPGC (SEQ ID NO:9) (bradykinin analog)”, the “specific binding of biotinylated NAT12 to the peptide (FIG. 4)” value (“specific binding of biotinylated NAT12” below) [6] is reported as “specifically bound”.

With “LNA7: non-BK analog peptide (SEQ ID NO:8) (LNAENNA; bradykinin analog)” the “inhibition of γ-thrombin-induced platelet aggregation” value ([1]; 1 mM peptide, 20 nM γ-thrombin, human PRP) was “unable to inhibit” and the “specific binding of biotinylated NAT12” value [6] was “not”.

For “FSPFR: peptide FSPFR (SEQ ID NO: 10) (bradykinin analog)”, the “specific binding of biotinylated NAT12” value [6] was “not”.

B1: biotinylated NAT12 (peptide)
peptide: NATLDPRSFLLR
modifications: also: biotinylated (position not given here)
notes: It was in solution in the microtiter plate assay; also called biotin-NAT12
B1: no binding (LNA7); no binding (FSPFR); binds (RPPGC).

B2: HK: human high molecular weight kininogen (protein, UniProt P01042 19-644, looked up)
Kininogen-1: QESQSEEIDCNDKDLFKAVDAALKKYNSQNQSNNQFVLYRITEATKTVGSDTFYSFKYEIKEGDCPVQSGKTWQDCEYKDAAKAATGECTATVGKRSSTKFSVATQTCQITPAEGPVVTAQYDCLGCVHPISTQSPDLEPILRHGIQYFNNNTQHSSLFMLNEVKRAQRQVVAGLNFRITYSIVQTNCSKENFLFLTPDCKSLWNGDTGECTDNAYIDIQLRIASFSQNCDIYPGKDFVQPPTKICVGCPRDIPTNSPELEETLTHTITKLNAENNATFYFKIDNVKKARVQVVAGKKYFIDFVARETTCSKESNEELTESCETKKLGQSLDCNAEVYVVPWEKKIYPTVNCQPLGMISLMKRPPGFSPFRSSRIGEIKEETTVSPPHTSMAPAQDEERDSGKEQGHTRRHDWGHEKQRKHNLGHGHKHERDQGHGHQRGHGLGHGHEQQHGLGHGHKFKLDDDLEHQGGHVLDHGHKHKHGHGHGKHKNKGKKNGKHNGWKTEHLASSSEDSTTPSAQTQEKTEGPTPIPSLAKPGVTVTFSDFQDSDLIATMMPPISPAPIQSDDDWIPDIQIDPNGLSFNPISDFPDTTSPKCPGRPWKSVSEINPTTQMKESYYFDLTDGLS
modifications: high molecular weight kininogen
In the case of B2, the “inhibition of α-thrombin-induced calcium mobilization in endothelial cells (FIG. 6)” value [7] is reported as “inhibited calcium mobilization; also recorded: inhibition”, the “inhibition of α-thrombin-induced calcium mobilization in fibroblasts (FIG. 5)” value [2] is reported as “inhibited calcium mobilization; also recorded: inhibition” and the “inhibition of 125-α-thrombin binding to platelets” value [8] is reported as “inhibit”.
